# Data from ChEMBL document CHEMBL3611978, “Synthesis and biological evaluation of novel 7-substituted 3-(4-phenoxyphenyl)thieno[3,2-c]pyridin-4-amines as potent Bruton's tyrosine kinase (BTK) inhibitors” (Bioorg Med Chem, 2015).
# Molecular target: Vascular endothelial growth factor receptor 2 (Homo sapiens, UniProt P35968)
# Experiment: Inhibition of KDR (unknown origin) after 1 hr by ELISA based assay
# Chain of Vascular endothelial growth factor receptor 2 (P35968 whole entry): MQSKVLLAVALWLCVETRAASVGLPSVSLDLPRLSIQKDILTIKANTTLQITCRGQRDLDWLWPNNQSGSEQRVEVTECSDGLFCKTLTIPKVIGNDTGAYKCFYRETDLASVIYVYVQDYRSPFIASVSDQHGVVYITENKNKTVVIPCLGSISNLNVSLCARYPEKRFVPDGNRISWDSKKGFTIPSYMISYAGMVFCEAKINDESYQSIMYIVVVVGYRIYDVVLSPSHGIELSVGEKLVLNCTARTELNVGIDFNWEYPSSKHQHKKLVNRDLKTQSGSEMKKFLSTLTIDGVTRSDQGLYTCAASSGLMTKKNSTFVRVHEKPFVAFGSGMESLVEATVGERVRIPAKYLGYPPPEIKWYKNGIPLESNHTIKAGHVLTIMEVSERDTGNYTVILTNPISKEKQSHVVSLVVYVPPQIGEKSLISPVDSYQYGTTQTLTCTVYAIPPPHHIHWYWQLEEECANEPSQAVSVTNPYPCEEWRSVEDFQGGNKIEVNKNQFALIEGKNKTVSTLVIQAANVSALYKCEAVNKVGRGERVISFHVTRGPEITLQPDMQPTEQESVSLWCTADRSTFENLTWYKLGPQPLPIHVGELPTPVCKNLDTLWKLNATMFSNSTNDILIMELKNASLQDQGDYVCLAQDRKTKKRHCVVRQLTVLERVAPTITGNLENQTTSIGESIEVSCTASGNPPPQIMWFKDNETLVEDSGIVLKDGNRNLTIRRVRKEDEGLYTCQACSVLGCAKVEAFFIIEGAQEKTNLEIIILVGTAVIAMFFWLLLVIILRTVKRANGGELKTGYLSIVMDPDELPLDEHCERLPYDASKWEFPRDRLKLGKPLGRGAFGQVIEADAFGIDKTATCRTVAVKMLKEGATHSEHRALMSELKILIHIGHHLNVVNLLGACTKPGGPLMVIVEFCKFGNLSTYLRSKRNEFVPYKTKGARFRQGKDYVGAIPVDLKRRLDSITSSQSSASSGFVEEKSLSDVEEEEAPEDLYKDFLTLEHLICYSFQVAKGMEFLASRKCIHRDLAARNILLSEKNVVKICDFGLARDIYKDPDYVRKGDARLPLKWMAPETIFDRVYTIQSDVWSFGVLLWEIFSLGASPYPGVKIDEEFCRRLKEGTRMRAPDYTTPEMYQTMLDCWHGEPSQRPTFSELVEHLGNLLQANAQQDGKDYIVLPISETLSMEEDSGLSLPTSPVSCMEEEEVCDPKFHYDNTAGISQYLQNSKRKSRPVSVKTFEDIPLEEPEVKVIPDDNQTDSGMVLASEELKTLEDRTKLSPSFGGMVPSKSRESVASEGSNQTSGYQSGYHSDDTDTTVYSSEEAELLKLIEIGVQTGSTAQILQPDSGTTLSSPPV
row,IC50 [nM],SMILES
1,191,Nc1ncc(-c2cnn(CC(=O)N3CCOCC3)c2)c2scc(-c3ccc(Oc4ccccc4)cc3)c12

# Molecular target: Hepatocyte growth factor receptor (Homo sapiens, UniProt P08581)
# Sequence (P08581 whole entry): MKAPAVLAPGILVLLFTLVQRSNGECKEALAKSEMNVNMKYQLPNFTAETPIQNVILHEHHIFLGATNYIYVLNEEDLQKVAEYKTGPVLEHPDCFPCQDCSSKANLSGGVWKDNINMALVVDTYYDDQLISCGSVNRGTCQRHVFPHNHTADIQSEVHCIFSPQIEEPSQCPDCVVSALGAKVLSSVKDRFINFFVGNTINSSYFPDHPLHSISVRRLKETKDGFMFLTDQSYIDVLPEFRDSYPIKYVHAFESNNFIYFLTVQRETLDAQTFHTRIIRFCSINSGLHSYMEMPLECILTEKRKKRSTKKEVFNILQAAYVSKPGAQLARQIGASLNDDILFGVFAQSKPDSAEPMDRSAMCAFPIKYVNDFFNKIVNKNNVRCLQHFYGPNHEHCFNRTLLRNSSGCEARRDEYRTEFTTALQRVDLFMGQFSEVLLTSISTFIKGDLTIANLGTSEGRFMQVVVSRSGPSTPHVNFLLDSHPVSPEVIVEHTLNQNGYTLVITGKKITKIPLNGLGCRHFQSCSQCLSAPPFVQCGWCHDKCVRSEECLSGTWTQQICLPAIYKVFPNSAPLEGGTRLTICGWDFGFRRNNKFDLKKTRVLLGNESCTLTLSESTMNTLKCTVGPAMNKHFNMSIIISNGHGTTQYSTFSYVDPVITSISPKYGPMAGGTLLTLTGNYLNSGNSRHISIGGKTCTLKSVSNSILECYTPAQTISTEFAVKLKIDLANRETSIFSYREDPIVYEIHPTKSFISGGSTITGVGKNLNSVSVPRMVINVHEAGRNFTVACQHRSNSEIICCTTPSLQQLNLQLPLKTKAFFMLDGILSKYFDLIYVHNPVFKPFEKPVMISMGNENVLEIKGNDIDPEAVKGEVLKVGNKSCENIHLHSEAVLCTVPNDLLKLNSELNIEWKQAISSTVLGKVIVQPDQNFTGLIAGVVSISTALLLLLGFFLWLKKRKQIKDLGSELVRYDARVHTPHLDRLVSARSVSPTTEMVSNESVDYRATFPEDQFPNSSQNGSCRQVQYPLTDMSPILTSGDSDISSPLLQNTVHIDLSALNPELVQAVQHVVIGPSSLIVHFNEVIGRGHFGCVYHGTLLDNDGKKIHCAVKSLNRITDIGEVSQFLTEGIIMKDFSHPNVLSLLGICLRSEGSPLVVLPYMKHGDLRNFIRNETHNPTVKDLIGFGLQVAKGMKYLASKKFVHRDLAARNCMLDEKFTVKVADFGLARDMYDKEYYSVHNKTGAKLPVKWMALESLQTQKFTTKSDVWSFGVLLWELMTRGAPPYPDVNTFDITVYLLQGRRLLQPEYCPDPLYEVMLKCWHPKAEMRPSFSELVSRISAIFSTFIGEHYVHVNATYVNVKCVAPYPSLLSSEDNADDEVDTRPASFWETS
# Experiment: Inhibition of c-MET (unknown origin) after 1 hr by ELISA based assay
row,IC50 [nM],SMILES
1,2430,Nc1ncc(-c2cnn(CC(=O)N3CCOCC3)c2)c2scc(-c3ccc(Oc4ccccc4)cc3)c12

# Molecular target: Tyrosine-protein kinase BTK (Homo sapiens, UniProt Q06187)
# Sequence (Q06187 whole entry): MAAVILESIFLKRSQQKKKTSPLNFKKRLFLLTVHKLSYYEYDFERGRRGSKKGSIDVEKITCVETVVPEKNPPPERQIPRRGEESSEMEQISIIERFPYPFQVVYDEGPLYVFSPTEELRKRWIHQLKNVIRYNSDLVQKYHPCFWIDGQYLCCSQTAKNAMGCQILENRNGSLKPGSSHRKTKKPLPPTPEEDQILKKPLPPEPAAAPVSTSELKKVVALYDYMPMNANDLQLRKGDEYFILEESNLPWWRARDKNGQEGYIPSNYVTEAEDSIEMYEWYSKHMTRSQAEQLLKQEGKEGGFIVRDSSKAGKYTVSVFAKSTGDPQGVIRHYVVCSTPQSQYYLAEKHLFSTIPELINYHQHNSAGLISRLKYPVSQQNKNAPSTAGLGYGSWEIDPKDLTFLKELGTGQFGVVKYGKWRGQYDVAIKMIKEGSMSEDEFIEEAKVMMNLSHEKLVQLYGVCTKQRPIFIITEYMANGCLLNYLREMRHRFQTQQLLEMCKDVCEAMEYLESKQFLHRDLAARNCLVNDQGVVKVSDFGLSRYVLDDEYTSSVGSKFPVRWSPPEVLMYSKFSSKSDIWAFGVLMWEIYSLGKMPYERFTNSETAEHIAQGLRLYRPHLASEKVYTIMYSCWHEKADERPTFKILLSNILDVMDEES
# Experiment: Inhibition of BTK (unknown origin) after 1 hr by TR-FRET assay
row,IC50 [nM],SMILES
1,7.4,C#CCn1cc(-c2cnc(N)c3c(-c4ccc(Oc5ccccc5)cc4)csc23)cn1
2,9.5,Nc1ncc(-c2cnn(C3CCCNC3=O)c2)c2scc(-c3ccc(Oc4ccccc4)cc3)c12 (centres undefined)
3,2300,C=CC(=O)N1CCCC(c2cnc(N)c3c(-c4ccc(Oc5ccccc5)cc4)csc23)C1 (centres undefined)
4,25.5,CNC(=O)CCn1cc(-c2cnc(N)c3c(-c4ccc(Oc5ccccc5)cc4)csc23)cn1
5,1690,C=CC(=O)n1cc(-c2cnc(N)c3c(-c4ccc(Oc5ccccc5)cc4)csc23)cn1
6,9.9,C=CC(=O)NCCn1cc(-c2cnc(N)c3c(-c4ccc(Oc5ccccc5)cc4)csc23)cn1
7,1660,CC(C)(C)OC(=O)N1CC=C(c2cnc(N)c3c(-c4ccc(Oc5ccccc5)cc4)csc23)CC1
8,7.8,CC(=O)Cn1cc(-c2cnc(N)c3c(-c4ccc(Oc5ccccc5)cc4)csc23)cn1
9,54.9,CS(=O)(=O)OC1CCCN(C(=O)CCn2cc(-c3cnc(N)c4c(-c5ccc(Oc6ccccc6)cc5)csc34)cn2)C1 (centres undefined)
10,3600,Nc1ncc(C2=CNCCC2)c2scc(-c3ccc(Oc4ccccc4)cc3)c12
11,> 10000,Nc1ncc(C2CCCNC2)c2scc(-c3ccc(Oc4ccccc4)cc3)c12 (centres undefined)
12,12.2,Nc1ncc(-c2cnn(CC(=O)N3CCCCC3)c2)c2scc(-c3ccc(Oc4ccccc4)cc3)c12
13,183,C=CC(=O)N1CC=C(c2cnc(N)c3c(-c4ccc(Oc5ccccc5)cc4)csc23)CC1
14,11.8,Nc1ncc(-c2cnn(CC(=O)N3CCOCC3)c2)c2scc(-c3ccc(Oc4ccccc4)cc3)c12
15,> 10000,Nc1ncc(C2CCNCC2)c2scc(-c3ccc(Oc4ccccc4)cc3)c12
16,343,C=CC(=O)N1C=C(c2cnc(N)c3c(-c4ccc(Oc5ccccc5)cc4)csc23)CCC1
17,21,Nc1ncc(-c2cnn(CCC(=O)O)c2)c2scc(-c3ccc(Oc4ccccc4)cc3)c12
18,2870,CC(C)(C)OC(=O)N1C=C(c2cnc(N)c3c(-c4ccc(Oc5ccccc5)cc4)csc23)CCC1
19,456,CNC(=O)CN1C=C(c2cnc(N)c3c(-c4ccc(Oc5ccccc5)cc4)csc23)CCC1

row,SMILES,IC50 [nM]
1,Nc1ncc(C2=CCNCC2)c2scc(-c3ccc(Oc4ccccc4)cc3)c12,854

# Molecular target: Tyrosine-protein kinase JAK2 (Homo sapiens, UniProt O60674)
# Sequence (O60674 whole entry): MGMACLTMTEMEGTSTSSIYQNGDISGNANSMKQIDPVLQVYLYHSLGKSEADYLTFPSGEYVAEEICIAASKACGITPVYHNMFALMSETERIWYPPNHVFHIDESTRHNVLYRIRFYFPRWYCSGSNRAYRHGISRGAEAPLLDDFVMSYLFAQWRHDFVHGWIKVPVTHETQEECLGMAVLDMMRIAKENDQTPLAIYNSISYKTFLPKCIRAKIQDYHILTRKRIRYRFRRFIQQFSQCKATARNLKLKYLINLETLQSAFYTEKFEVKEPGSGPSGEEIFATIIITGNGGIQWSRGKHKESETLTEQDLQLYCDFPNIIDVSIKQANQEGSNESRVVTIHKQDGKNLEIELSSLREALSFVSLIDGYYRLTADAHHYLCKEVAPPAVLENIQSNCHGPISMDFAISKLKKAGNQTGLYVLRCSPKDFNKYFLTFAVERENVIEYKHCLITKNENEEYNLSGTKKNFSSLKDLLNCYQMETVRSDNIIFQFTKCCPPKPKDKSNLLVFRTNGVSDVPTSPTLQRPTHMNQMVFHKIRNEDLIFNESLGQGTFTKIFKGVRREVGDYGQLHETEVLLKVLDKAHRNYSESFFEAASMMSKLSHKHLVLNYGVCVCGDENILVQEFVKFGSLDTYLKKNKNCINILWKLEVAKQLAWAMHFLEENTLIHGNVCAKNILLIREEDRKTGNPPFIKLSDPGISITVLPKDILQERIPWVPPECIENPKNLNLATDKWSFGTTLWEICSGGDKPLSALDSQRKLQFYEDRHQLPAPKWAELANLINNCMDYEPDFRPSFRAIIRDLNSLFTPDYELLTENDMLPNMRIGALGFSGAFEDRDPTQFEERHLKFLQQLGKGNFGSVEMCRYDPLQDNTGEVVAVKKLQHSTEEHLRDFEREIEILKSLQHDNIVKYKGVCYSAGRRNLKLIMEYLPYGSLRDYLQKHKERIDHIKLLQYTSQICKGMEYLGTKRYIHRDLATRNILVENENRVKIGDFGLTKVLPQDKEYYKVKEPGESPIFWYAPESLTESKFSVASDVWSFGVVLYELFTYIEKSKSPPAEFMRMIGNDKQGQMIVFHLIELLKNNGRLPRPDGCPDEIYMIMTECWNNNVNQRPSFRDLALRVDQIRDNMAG
# Experiment: Inhibition of JAK2 (unknown origin) after 1 hr by ELISA based assay
row,IC50 [nM],SMILES
1,6860,Nc1ncc(-c2cnn(CC(=O)N3CCOCC3)c2)c2scc(-c3ccc(Oc4ccccc4)cc3)c12

# Molecular target: T1, Tyrosine-protein kinase JAK3 (Homo sapiens, UniProt P52333)
# T1 sequence (P52333 whole entry): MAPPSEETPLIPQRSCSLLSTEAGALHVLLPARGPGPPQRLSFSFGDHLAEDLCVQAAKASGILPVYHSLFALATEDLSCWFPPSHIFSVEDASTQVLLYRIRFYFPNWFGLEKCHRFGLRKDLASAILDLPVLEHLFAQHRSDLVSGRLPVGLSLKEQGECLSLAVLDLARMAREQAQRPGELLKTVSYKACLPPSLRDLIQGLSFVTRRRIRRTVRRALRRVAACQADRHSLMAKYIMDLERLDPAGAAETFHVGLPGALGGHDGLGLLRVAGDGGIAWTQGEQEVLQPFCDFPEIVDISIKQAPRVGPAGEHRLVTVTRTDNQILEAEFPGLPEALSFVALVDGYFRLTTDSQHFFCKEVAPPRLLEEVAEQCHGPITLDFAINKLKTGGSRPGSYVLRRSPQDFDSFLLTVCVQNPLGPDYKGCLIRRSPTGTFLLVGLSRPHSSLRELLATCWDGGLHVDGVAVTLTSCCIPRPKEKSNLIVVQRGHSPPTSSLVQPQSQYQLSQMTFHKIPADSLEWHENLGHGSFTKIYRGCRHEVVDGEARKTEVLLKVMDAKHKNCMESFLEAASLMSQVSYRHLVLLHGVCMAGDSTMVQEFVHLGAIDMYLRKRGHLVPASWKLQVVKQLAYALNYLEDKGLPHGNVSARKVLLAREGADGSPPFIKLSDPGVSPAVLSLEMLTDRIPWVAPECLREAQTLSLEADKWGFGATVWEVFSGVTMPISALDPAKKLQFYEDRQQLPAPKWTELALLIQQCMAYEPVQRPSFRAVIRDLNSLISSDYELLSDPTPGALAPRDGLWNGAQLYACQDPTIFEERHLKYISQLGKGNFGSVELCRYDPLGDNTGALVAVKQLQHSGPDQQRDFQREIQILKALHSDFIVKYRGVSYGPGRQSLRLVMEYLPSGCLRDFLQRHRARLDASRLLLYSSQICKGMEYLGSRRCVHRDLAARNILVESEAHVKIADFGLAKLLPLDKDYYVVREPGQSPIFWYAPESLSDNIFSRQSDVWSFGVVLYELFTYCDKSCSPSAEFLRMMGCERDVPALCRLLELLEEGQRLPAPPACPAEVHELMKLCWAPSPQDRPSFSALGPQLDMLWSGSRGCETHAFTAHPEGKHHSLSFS
# Experiment: Inhibition of JAK3 (unknown origin) after 1 hr by ELISA based assay
row,IC50 [nM],SMILES
1,3070,Nc1ncc(-c2cnn(CC(=O)N3CCOCC3)c2)c2scc(-c3ccc(Oc4ccccc4)cc3)c12
